Laboratory results reported in patent US20260018245A1, “SYSTEMS AND METHODS FOR IDENTIFYING AND TARGETING COLLATERAL LETHAL GENES” (The Regents of the University of Michigan, priority 2022, published 2026).

Columns and labels:
Assay type in all cases: cell-based
[1] = test system: oxidative MTHFD2 flux in SKOV3 cells; assay: Oxidative MTHFD2 flux by 4-[2H]-glucose tracing; conditions: SKOV3 treated with rotenone and MTHFD2 inhibitor 60 μM
Experimental: (§1) FIG. 4 Dynamic flux analysis with parallel tracers to quantify oxidative MTHFD2 flux. a, Oxidative MTHFD2 flux and percentage decrease in OCRfollowing MTHFD2 inhibition in SKOV3 cells treated with rotenone (0, 31, 62, 125, 250, 500 or 1,000 nM) and MTHFD2 inhibitor (0 or 60 μM). Oxidative MTHFD2 flux is proportional to [2H1]-serine/[2H1]-NADH enrichment in cells cultured with 4-[2H]-glucose for 8 h. Percentage decrease in OCR is estimated in SKOV3 cells treated with 60 μM MTHFD2i compared with 0 μM MTHFD2i. Oxidative flux data are combined from two independent experiments (n=4), with mean±s.d. estimated using error propagation. […] (n=6) and analysed using two-tailed Welch's t-test. e, Ratio of [2H2]-serine/[2H]-NADH enrichment in SKOV3 and OVCAR8 cells at 2 h after combined tracer introduction of 4-[2H]-glucose and [2H]-formate, representing the normalized contribution of [2H]-NADH to [2H2]-serine via oxidative MTHFD2 flux. Data combined from two independent experiments (n=6), with mean±s.d. estimated using error propagation and analysed by two-tailed Welch's t-test. f, [2H2]-serine enrichment in SKOV3 cells expressing shScramble or shUQCR11 at 2 h after combined tracer introduction of 4-[2H]-glucose and [2H]-formate. […] (n=5) and analysed using one-tailed non-parametric Mann-Whitney test. […]

[2] = test system: reductive MTHFD2 flux in SKOV3 cells; assay: Reductive MTHFD2 flux by 2,3,3-[2H]-serine tracing; conditions: SKOV3 treated with MTHFD2 inhibitor 60 μM
Experimental: as §1

SKOV3 and OVCAR8 cells = assay: De novo pyrimidine synthesis flux with [13C4]-aspartate tracer; conditions: SKOV3 and OVCAR8, with vs without MTHFD2 inhibitor
SKOV3 cells = assay: Oxygen consumption rate (OCR) measurement
Experimental: FIG. 4 Dynamic flux analysis with parallel tracers to quantify oxidative MTHFD2 flux. a, Oxidative MTHFD2 flux and percentage decrease in OCRfollowing MTHFD2 inhibition in SKOV3 cells treated with rotenone (0, 31, 62, 125, 250, 500 or 1,000 nM) and MTHFD2 inhibitor (0 or 60 μM). Oxidative MTHFD2 flux is proportional to [2H1]-serine/[2H1]-NADH enrichment in cells cultured with 4-[2H]-glucose for 8 h. Percentage decrease in OCR is estimated in SKOV3 cells treated with 60 μM MTHFD2i compared with 0 μM MTHFD2i. Oxidative flux data are combined from two independent experiments (n=4), with mean±s.d. estimated using error propagation. OCR data are representative of two independent experiments and presented as mean±s.d. estimated using error propagation (n=5). b, Reductive MTHFD2 flux and basal OCR in SKOV3 cells treated with rotenone (0, 31, 62, 125, 250 or 1,000 nM) and MTHFD2 inhibitor (0 or 60 μM). Reductive MTHFD2 flux is proportional to [2H1]-NADH in cells cultured with 2,3,3-[2H]-serine for 8 h. OCR data are representative of two independent experiments and presented as mean±s.e.m. (n=5). c, Schematic of combination tracer experiment with 4-[2H]-glucose and [2H]-formate to track oxidative MTHFD2 flux. […] (n=6) and analysed using two-tailed Welch's t-test. e, Ratio of [2H2]-serine/[2H]-NADH enrichment in SKOV3 and OVCAR8 cells at 2 h after combined tracer introduction of 4-[2H]-glucose and [2H]-formate, representing the normalized contribution of [2H]-NADH to [2H2]-serine via oxidative MTHFD2 flux. Data combined from two independent experiments (n=6), with mean±s.d. estimated using error propagation and analysed by two-tailed Welch's t-test. f, [2H2]-serine enrichment in SKOV3 cells expressing shScramble or shUQCR11 at 2 h after combined tracer introduction of 4-[2H]-glucose and [2H]-formate. […] (n=5) and analysed using one-tailed non-parametric Mann-Whitney test.
OCR measurement. […] Live OCR was measured for up to 16 h after attaching the lid.
Mito stress test with the Seahorse analyser. Mitochondrial OCR was measured using a Seahorse XFe96 analyser (Agilent Technologies). […]

SMILES: Cc1c(N2CCN(C)[C@@H](C)C2)ccc2c3c(c(=O)oc12)CN(C(=O)c1ccc(NS(C)(=O)=O)c(OC(F)(F)F)c1)CC3 [DS18561882]
- oxidative MTHFD2 flux [1]: suppressed
- reductive MTHFD2 flux [2]: greatly reduced
- de novo pyrimidine synthesis flux (SKOV3 and OVCAR8 cells): similarly reduced
- OCR (SKOV3 cells; SKOV3, low range of rotenone doses plus MTHFD2 inhibitor 60 μM): synergistic decrease
- OCR (SKOV3 cells; SKOV3, rotenone doses >62 nM plus MTHFD2 inhibitor): did not detrimentally affect OCR
